In US8916567B2, “Certain crystalline hydrates, pharmaceutical compositions thereof and methods for preparation and use thereof” (Universal Technology Alliance, Inc., priority 2009, dated 2014):

Tests used:
[1] = test system: E. feacalis; experiment: Minimum inhibitory concentration (MIC) in vitro, agar dilution method; format: cell-based; conditions: hydrate
Summary of the method: (§1)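 Test samples, hydrates and anhydrous forms of 98.6–99.0% purity, are taken up in DMSO, then diluted in sterile distilled water and assayed against clinical isolates by CLSI agar dilution.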

[2] = test system: E. feacium; experiment: as above; format: cell-based; conditions: hydrate
Summary of the method: as §1

[3] = test system: S. epidermidis MRSE; experiment: as above; format: cell-based; conditions: hydrate
Summary of the method: as §1

[4] = test system: S. epidermidis MSSE; experiment: as above; format: cell-based; conditions: hydrate
Summary of the method: as §1

[5] = test system: Staphylococcus aureus MRSA; experiment: as above; format: cell-based; conditions: hydrate
Summary of the method: as §1

[6] = test system: Staphylococcus aureus MSSA; experiment: as above; format: cell-based; conditions: hydrate
Summary of the method: as §1

[7] = test system: Staphylococcus aureus; experiment: Minimum inhibitory concentration (MIC) in vitro, agar dilution method, quality control strain; format: cell-based; conditions: strain S. AT C C25923 (Table 7 No. 1); hydrate
Summary of the method: as §1

[8] = Solubility in different solvents according to Chinese Pharmacopeia (2005 edition); format: physicochemical; conditions: for Result: at the given solute:solvent ratio
Description: The solubility of the (S)—[N-3-(3′-fluoro-4′-(4″-phenylpiperazinyl))phenyl-2-oxo-5-oxazolelidinyl]methylacetamide hydrates was tested with different solvents, and the test results are shown in Tables 15-19. The solubility was measured according to Chinese Pharmacopeia (2005 edition).

[9] = E. feacalis (5 strains), clinically isolated
[10] = E. feacium (5 strains), clinically isolated
[11] = S. ep MRSE (10 strains), clinically isolated
[12] = S. ep MSSE (10 strains), clinically isolated
[13] = S. MRSA (10 strains), clinically isolated
[14] = S. MSSA (11 strains), clinically isolated

Work on `CC(=O)NC[C@H]1CN(c2ccc(N3CCN(c4ccccc4)CC3)c(F)c2)C(=O)O1` [⅖ hydrate, (S)—[N-3-(3′-fluoro-4′-(4″-phenylpiperazinyl))phenyl-2-oxo-5-oxazolidinyl]methyl acetamide 2/5 hydrate] yielded an MIC50 [1, 9] of 0.5 mg/L, an MIC90 [1, 9] of 0.5 mg/L and an MICrange [1, 9] of 0.125 to 0.5 µg/mL. The MIC ([1]; strain Efa 116 (Table 8 No. 16)) was 0.5 mg/L, the MIC ([1]; strain Efa 907 (Table 8 No. 19)) was 0.5 mg/L and the MIC ([1]; strain Efa 3006 (Table 8 No. 18)) was 0.25 mg/L. The MIC ([1]; strain Efa 33748 (Table 8 No. 17)) was 0.5 mg/L, the MIC50 [2, 10] was 1 mg/L and the MIC90 [2, 10] was 1 mg/L. For the same compound, the MICrange [2, 10] was 0.5 to 1 µg/mL, the MIC ([2]; strain Efm 98 (Table 8 No. 21)) was 0.5 mg/L and the MIC ([2]; strain Efm 171 (Table 8 No. 25)) was 0.5 mg/L. It also gave an MIC ([2]; strain Efm 197 (Table 8 No. 22)) of 1 mg/L, an MIC ([2]; strain Efm N3 (Table 8 No. 23)) of 1 mg/L and an MIC ([2]; strain Efm N4 (Table 8 No. 24)) of 1 mg/L. For the same compound, the MIC50 [3, 11] was 0.5 mg/L, the MIC90 [3, 11] was 0.5 mg/L and the MICrange [3, 11] was 0.125 to 0.5 µg/mL. It also gave an MIC ([3]; strain S. ep MRSE4 (Table 8 No. 9)) of 0.5 mg/L, an MIC ([3]; strain S. ep MRSE20 (Table 8 No. 6)) of 0.5 mg/L and an MIC ([3]; strain S. ep MRSE87 (Table 8 No. 13)) of 0.5 mg/L. It also gave an MIC ([3]; strain S. ep MRSE90 (Table 8 No. 10)) of 0.5 mg/L, an MIC ([3]; strain S. ep MRSE101 (Table 8 No. 7)) of 0.125 mg/L and an MIC ([3]; strain S. ep MRSE105 (Table 8 No. 11)) of 0.5 mg/L. For the same compound, the MIC ([3]; strain S. ep MRSE140 (Table 8 No. 14)) was 0.5 mg/L, the MIC ([3]; strain S. ep MRSE142 (Table 8 No. 12)) was 0.5 mg/L and the MIC ([3]; strain S. ep MRSE210 (Table 8 No. 15)) was 0.5 mg/L. It also gave an MIC ([3]; strain S. ep MRSE211 (Table 8 No. 8)) of 0.5 mg/L, an MIC50 [4, 12] of 0.5 mg/L and an MIC90 [4, 12] of 0.5 mg/L. It also gave an MICrange [4, 12] of 0.125 to 0.5 µg/mL, an MIC ([4]; strain S. ep MSSE87 (Table 7 No. 23)) of 0.125 mg/L and an MIC ([4]; strain S. ep MSSE88 (Table 8 No. 5)) of 0.5 mg/L. It also gave an MIC ([4]; strain S. ep MSSE113 (Table 7 No. 24)) of 0.5 mg/L, an MIC ([4]; strain S. ep MSSE116 (Table 7 No. 25)) of 0.5 mg/L and an MIC ([4]; strain S. ep MSSE118 (Table 8 No. 2)) of 0.5 mg/L. The MIC ([4]; strain S. ep MSSE119 (Table 7 No. 27)) was 0.125 mg/L, the MIC ([4]; strain S. ep MSSE137 (Table 8 No. 4)) was 0.5 mg/L and the MIC ([4]; strain S. ep MSSE140 (Table 8 No. 3)) was 0.5 mg/L. It also gave an MIC ([4]; strain S. ep MSSE142 (Table 7 No. 26)) of 0.25 mg/L, an MIC ([4]; strain S. ep MSSE153 (Table 8 No. 1)) of 0.5 mg/L and an MIC50 [5, 13] of 1 mg/L. It also gave an MIC90 [5, 13] of 0.5 mg/L, an MICrange [5, 13] of 0.25 to 0.5 µg/mL and an MIC ([5]; strain S. MRSA 29 (Table 7 No. 15)) of 0.5 mg/L. The MIC ([5]; strain S. MRSA 101 (Table 7 No. 14)) was 0.5 mg/L, the MIC ([5]; strain S. MRSA 201 (Table 7 No. 13)) was 0.5 mg/L and the MIC ([5]; strain S. MRSA B27 (Table 7 No. 21)) was 0.5 mg/L. It also gave an MIC ([5]; strain S. MRSA B105 (Table 7 No. 17)) of 0.5 mg/L, an MIC ([5]; strain S. MRSA B143 (Table 7 No. 19)) of 0.5 mg/L and an MIC ([5]; strain S. MRSA B151 (Table 7 No. 20)) of 0.25 mg/L. The MIC ([5]; strain S. MRSA B164 (Table 7 No. 16)) was 0.5 mg/L, the MIC ([5]; strain S. MRSA B199 (Table 7 No. 22)) was 0.5 mg/L and the MIC ([5]; strain S. MRSA B617 (Table 7 No. 18)) was 0.5 mg/L. It also gave an MIC50 [6, 14] of 0.5 mg/L, an MIC90 [6, 14] of 0.5 mg/L and an MICrange [6, 14] of 0.5 to 1 µg/mL. The MIC ([6]; strain S. MSSA 123 (Table 7 No. 3)) was 0.5 mg/L, the MIC ([6]; strain S. MSSA 187 (Table 7 No. 7)) was 0.5 mg/L and the MIC ([6]; strain S. MSSA 195 (Table 7 No. 6)) was 1 mg/L. It also gave an MIC ([6]; strain S. MSSA 195 (Table 7 No. 12)) of 0.5 mg/L, an MIC ([6]; strain S. MSSA 201 (Table 7 No. 11)) of 0.5 mg/L and an MIC ([6]; strain S. MSSA 232 (Table 7 No. 2)) of 0.5 mg/L. For the same compound, the MIC ([6]; strain S. MSSA 275 (Table 7 No. 10)) was 0.5 mg/L, the MIC ([6]; strain S. MSSA 466 (Table 7 No. 8)) was 0.5 mg/L and the MIC ([6]; strain S. MSSA 519 (Table 7 No. 9)) was 0.5 mg/L. For the same compound, the MIC ([6]; strain S. MSSA 520 (Table 7 No. 4)) was 0.5 mg/L, the MIC ([6]; strain S. MSSA 580 (Table 7 No. 5)) was 0.5 mg/L and the MIC [7] was 0.5 mg/L. The “Solubility compared with the anhydride” value ([8]; different solvents) was “sometimes more soluble than the anhydride”, the Result ([8]; solvent 0.1N Hydrochloric acid) was “Dissolved” and the Result ([8]; solvent 0.1N Sodium hydroxide) was “Insoluble”. The Result ([8]; solvent Acetonitrile) was “Dissolved”, the Result ([8]; solvent Ethanol) was “Dissolved” and the Result ([8]; solvent Methanol) was “Dissolved”. The Result ([8]; solvent Water, hydrate) was “Dissolved”.
